According to US20230233569A1 (Revolution Medicines, Inc., priority 2020, published 2023):
Read-outs that look alike come from different tables or passages of the source.

Columns and labels:
Capan-1 (K-Ras G12V) = assay: CellTiter-Glo cell viability assay, 5-day treatment; type: cell-based; details: Homo sapiens, CAPAN-1, 120 h, 5-day treatment; read-out: Capan-1 Cell Viability assay data (K-Ras G12V, IC50)
Outline: (§1)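 Compounds were dispensed directly onto seeded cells and incubated for 5 days, then plates were equilibrated to room temperature for about 30 minutes before luminescence reading. Signals were expressed as percent of the mean DMSO control and fitted with a four-parameter logistic curve.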

NCI-H358 (K-Ras G12C) = assay: as above; type: cell-based; details: Homo sapiens, NCI-H358, 120 h, 5-day treatment; read-out: H358 Cell Viability assay data (K-Ras G12C, IC50)
Outline: as §1

KRAS Q61H = KRAS Q61H (Homo sapiens, UniProt P01116+P62937, Q61H); assay: Disruption of BRAF RBD interaction with Ras (FRET / MOA assay, with Cyclophilin A); type: biochemical
Outline: (§2)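 IC50 reflects compound-driven Ras:Cyclophilin A ternary complex displacing BRAF RBD, read as lowered TR-FRET ratio relative to DMSO after Eu anti-His (10 nM) and APC anti-GST (50 nM) detection for 1.5 h. Prior incubation 3 h, 25° C, with 12.5 nM GMPPNP-loaded Ras, 50 nM BRAF RBD, 25 μM Cyclophilin A; top compound 30 μM.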

NRAS WT = NRAS WT (Homo sapiens, UniProt P01111+P62937); assay: as above; type: biochemical
Outline: as §2

NRAS Q61R = NRAS Q61R (Homo sapiens, UniProt P01111+P62937, Q61R); assay: as above; type: biochemical
Outline: as §2

NRAS Q61K = NRAS Q61K (Homo sapiens, UniProt P01111+P62937, Q61K); assay: as above; type: biochemical
Outline: as §2

NRAS G12C = NRAS G12C (Homo sapiens, UniProt P01111+P62937, G12C); assay: as above; type: biochemical
KRAS G12D = KRAS G12D (Homo sapiens, UniProt P01116+P62937, G12D); assay: as above; type: biochemical
Outline: (§3)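 TR-FRET: nucleotide-loaded K-Ras mutant or WT with Cyclophilin A and BRAF RBD, compound 10-point 3-fold from 30 μM final, 3 h at 25° C, then anti-His Eu (10 nM) and anti-GST APC (50 nM) for 1.5 h. Decreased FRET ratio versus DMSO gives IC50.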

KRAS WT = KRAS WT (Homo sapiens, UniProt P01116+P62937); assay: as above; type: biochemical
Outline: as §3

KRAS G13D = KRAS G13D (Homo sapiens, UniProt P01116+P62937, G13D); assay: as above; type: biochemical
Outline: as §3

KRAS G12V = KRAS G12V (Homo sapiens, UniProt P01116+P62937, G12V); assay: as above; type: biochemical
Outline: as §3

KRAS G12C = KRAS G12C (Homo sapiens, UniProt P01116+P62937, G12C); assay: as above; type: biochemical
Outline: as §3

KRAS G12S = KRAS G12S (Homo sapiens, UniProt P01116+P62937, G12S); assay: as above; type: biochemical
Outline: as §3

KRAS G13C = KRAS G13C (Homo sapiens, UniProt P01116+P62937, G13C); assay: as above; type: biochemical
Outline: as §3

[1] = KRAS Q61H, read-out: KRAS Q61H FRET data IC50
[2] = NRAS WT, read-out: NRAS WT FRET data IC50
[3] = NRAS Q61R, read-out: NRAS Q61R FRET data IC50
[4] = NRAS Q61K, read-out: NRAS Q61K FRET data IC50
[5] = NRAS G12C, read-out: NRAS G12C FRET data IC50
[6] = read-out: KRAS G12D FRET data, IC50
[7] = KRAS WT, read-out: KRAS WT FRET data IC50
[8] = KRAS G13D, read-out: KRAS G13D FRET data IC50
[9] = KRAS G12V, read-out: KRAS G12V FRET data IC50
[10] = read-out: KRAS G12C FRET data, IC50
[11] = read-out: KRAS G12S FRET data, IC50
[12] = read-out: KRAS G13C FRET data, IC50

Sequence of KRAS G13D (P01116 1-169 isoform P01116-2 G13D limits assumed): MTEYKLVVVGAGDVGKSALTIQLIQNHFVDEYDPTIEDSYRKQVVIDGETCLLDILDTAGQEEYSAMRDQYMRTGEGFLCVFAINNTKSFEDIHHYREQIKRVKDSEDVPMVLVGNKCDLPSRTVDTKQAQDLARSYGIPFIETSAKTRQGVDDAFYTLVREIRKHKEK
Sequence of KRAS G13D (P62937 whole entry): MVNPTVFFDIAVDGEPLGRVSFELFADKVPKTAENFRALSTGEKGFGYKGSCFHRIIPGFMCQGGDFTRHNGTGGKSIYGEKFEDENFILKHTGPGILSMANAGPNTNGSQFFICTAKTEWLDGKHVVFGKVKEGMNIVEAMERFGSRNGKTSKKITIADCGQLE
Sequence of KRAS G12S (P01116 1-169 isoform P01116-2 G12S limits assumed): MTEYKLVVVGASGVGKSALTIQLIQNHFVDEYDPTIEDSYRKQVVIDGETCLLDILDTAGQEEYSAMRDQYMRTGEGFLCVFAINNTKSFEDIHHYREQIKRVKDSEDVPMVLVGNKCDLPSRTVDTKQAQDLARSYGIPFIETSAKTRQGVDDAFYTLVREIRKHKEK
Sequence of KRAS G12S (P62937 whole entry): as the sequence (P62937 whole entry) above
Sequence of KRAS G12C (P01116 1-169 isoform P01116-2 G12C): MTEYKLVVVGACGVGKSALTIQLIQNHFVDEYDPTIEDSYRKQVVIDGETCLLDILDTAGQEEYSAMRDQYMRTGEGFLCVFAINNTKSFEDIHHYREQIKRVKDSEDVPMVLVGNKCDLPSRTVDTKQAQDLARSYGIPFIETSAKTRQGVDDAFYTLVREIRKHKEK
Sequence of KRAS G12C (P62937 whole entry): as the sequence (P62937 whole entry) above
Sequence of NRAS Q61K (P01111 whole entry Q61K): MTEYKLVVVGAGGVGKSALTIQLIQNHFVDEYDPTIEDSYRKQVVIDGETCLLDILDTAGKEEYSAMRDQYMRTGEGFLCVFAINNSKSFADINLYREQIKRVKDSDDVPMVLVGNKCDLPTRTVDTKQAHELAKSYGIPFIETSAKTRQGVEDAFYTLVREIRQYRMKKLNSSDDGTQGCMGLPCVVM
Sequence of NRAS Q61K (P62937 whole entry): as the sequence (P62937 whole entry) above
Sequence of KRAS G12V (P01116 1-169 isoform P01116-2 G12V limits assumed): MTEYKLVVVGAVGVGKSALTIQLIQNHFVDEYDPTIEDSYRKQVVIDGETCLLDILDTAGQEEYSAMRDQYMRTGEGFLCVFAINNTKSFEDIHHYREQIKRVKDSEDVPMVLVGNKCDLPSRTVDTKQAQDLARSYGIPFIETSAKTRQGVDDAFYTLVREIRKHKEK
Sequence of KRAS G12V (P62937 whole entry): as the sequence (P62937 whole entry) above
Sequence of NRAS Q61R (P01111 whole entry Q61R): as the sequence (P01111 whole entry Q61K) above, with K61R counted along it
Sequence of NRAS Q61R (P62937 whole entry): as the sequence (P62937 whole entry) above
Sequence of KRAS Q61H (P01116 1-169 isoform P01116-2 Q61H limits assumed): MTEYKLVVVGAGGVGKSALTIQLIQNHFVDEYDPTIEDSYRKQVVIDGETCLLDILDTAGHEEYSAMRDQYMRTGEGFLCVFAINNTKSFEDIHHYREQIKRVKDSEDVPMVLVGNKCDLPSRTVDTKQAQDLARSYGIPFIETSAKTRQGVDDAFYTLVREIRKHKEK
Sequence of KRAS Q61H (P62937 whole entry): as the sequence (P62937 whole entry) above
Sequence of KRAS WT (P01116 1-169 isoform P01116-2 limits assumed): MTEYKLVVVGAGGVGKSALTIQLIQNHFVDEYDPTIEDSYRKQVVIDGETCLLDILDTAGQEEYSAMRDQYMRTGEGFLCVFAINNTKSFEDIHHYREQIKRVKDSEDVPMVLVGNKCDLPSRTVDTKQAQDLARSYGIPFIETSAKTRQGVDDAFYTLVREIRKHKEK
Sequence of KRAS WT (P62937 whole entry): as the sequence (P62937 whole entry) above
Sequence of KRAS G13C (P01116 1-169 isoform P01116-2 G13C): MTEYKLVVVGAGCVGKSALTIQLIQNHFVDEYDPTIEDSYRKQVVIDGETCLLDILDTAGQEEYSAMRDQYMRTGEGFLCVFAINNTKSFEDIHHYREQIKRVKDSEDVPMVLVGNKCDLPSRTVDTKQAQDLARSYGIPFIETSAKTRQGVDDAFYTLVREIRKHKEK
Sequence of KRAS G13C (P62937 whole entry): as the sequence (P62937 whole entry) above
Sequence of NRAS WT (P01111 whole entry): as the sequence (P01111 whole entry Q61K) above, with K61Q counted along it
Sequence of NRAS WT (P62937 whole entry): as the sequence (P62937 whole entry) above
Sequence of NRAS G12C (P01111 whole entry G12C): as the sequence (P01111 whole entry Q61K) above, with G12C, K61Q counted along it
Sequence of NRAS G12C (P62937 whole entry): as the sequence (P62937 whole entry) above
Sequence of KRAS G12D (P01116 1-169 isoform P01116-2 G12D limits assumed): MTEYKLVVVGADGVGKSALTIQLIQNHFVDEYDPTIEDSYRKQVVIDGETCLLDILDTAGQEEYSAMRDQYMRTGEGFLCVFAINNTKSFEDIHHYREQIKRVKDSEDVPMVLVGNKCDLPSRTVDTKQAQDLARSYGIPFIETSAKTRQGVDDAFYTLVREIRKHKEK
Sequence of KRAS G12D (P62937 whole entry): as the sequence (P62937 whole entry) above

Row | Compound | IC50 (Capan-1 (K-Ras G12V)) [nM] | IC50 (NCI-H358 (K-Ras G12C)) [nM] | IC50 (KRAS Q61H; [1]) [nM] | IC50 (NRAS WT; [2]) [nM] | IC50 (NRAS Q61R; [3]) [nM] | IC50 (NRAS Q61K; [4]) [nM] | IC50 (NRAS G12C; [5]) [nM] | IC50 (KRAS G12D; [6]) [nM] | IC50 (KRAS WT; [7]) [nM] | IC50 (KRAS G13D; [8]) [nM] | IC50 (KRAS G12V; [9]) [nM] | IC50 (KRAS G12C; [10]) [nM] | IC50 (KRAS G12S; [11]) [nM] | IC50 (KRAS G13C; [12]) [nM] | further results
1 | CCn1c(-c2cccnc2[C@H](C)OC)c2c3cc(ccc31)-c1csc(n1)C[C@H](NC(=O)[C@H](C(C)C)N(C)C(=O)OC)C(=O)N1CCC[C@H](N1)C(=O)OCC(C)(C)C2 [Example A138] | 10 to 100 | 10 to 100 |  |  |  |  |  |  |  |  |  |  |  |  | IC50 (KRAS Q61H; KRAS Q61H FRET data IC50, KRAS Q61H): 100 to 1000 nM; IC50 (NRAS WT; NRAS WT FRET data IC50, NRAS WT): 100 to 1000 nM; IC50 (NRAS Q61R; NRAS Q61R FRET data IC50, NRAS Q61R): 100 to 1000 nM; IC50 (NRAS Q61K; NRAS Q61K FRET data IC50, NRAS Q61K): 100 to 1000 nM; IC50 (NRAS G12C; NRAS G12C FRET data IC50, NRAS G12C): 100 to 1000 nM; IC50 (KRAS G12D; KRAS G12D FRET data, IC50): 1000 to 10000 nM; IC50 (KRAS WT; KRAS WT FRET data IC50, KRAS WT): 100 to 1000 nM; IC50 (KRAS G13D; KRAS G13D FRET data IC50, KRAS G13D): 1000 to 10000 nM; IC50 (KRAS G12V; KRAS G12V FRET data IC50, KRAS G12V): 100 to 1000 nM; IC50 (KRAS G12C; KRAS G12C FRET data, IC50): 100 to 1000 nM; IC50 (KRAS G12S; KRAS G12S FRET data, IC50): 1000 to 10000 nM; IC50 (KRAS G13C; KRAS G13C FRET data, IC50): 100 to 1000 nM
2 | CCn1c(-c2cccnc2[C@H](C)OC)c2c3cc(ccc31)-c1cc(O)cc(c1)C[C@H](NC(=O)[C@H](C(C)C)N(C)C(=O)[C@@H]1CCN[C@@H]1c1ccccc1)C(=O)N1CCC[C@H](N1)C(=O)OCC(C)(C)C2 (atropisomer, axis not shown) [Example A605] | 100 to 1000 | 10 to 100 | < 10 | 10 to 100 | 100 to 1000 | 100 to 1000 | 10 to 100 | 10 to 100 | 10 to 100 | 10 to 100 | 10 to 100 | 10 to 100 | 10 to 100 | 10 to 100 | 
3 | CCn1c(-c2cc(C3CCN(C)CC3)cnc2[C@H](C)OC)c2c3cc(ccc31)-c1csc(n1)C[C@H](NC(=O)[C@H](C(C)C)N(C)C(=O)N(C)C)C(=O)N1CCC[C@H](N1)C(=O)OCC(C)(C)C2 (atropisomer, axis not shown) [Example A484] | < 10 | < 10 | 10 to 100 | 10 to 100 | 100 to 1000 | 10 to 100 | 10 to 100 | 100 to 1000 | 100 to 1000 | 100 to 1000 | 100 to 1000 | 10 to 100 | 100 to 1000 | 100 to 1000 | 
4 | CCn1c(-c2cccnc2[C@H](C)OC)c2c3cc(ccc31)-c1csc(n1)C[C@H](NC(=O)[C@H](C(C)C)N(C)C(=O)N1CCCC13COC3)C(=O)N1CCC[C@H](N1)C(=O)OCC(C)(C)C2 (atropisomer, axis not shown) [Example A528] | 10 to 100 | 10 to 100 | 10 to 100 | 10 to 100 | 10 to 100 | 10 to 100 | 10 to 100 | 100 to 1000 | 10 to 100 | 100 to 1000 | 100 to 1000 | 10 to 100 | 100 to 1000 | 100 to 1000 | 
5 | CCn1c(-c2cccnc2[C@H](C)OC)c2c3cc(ccc31)-c1csc(n1)C[C@H](NC(=O)[C@H](C(C)C)N(C)C(=O)N1CC(S(=O)(=O)NC)C1)C(=O)N1CCC[C@H](N1)C(=O)OCC(C)(C)C2 (atropisomer, axis not shown) [Example A549] | 10 to 100 | 10 to 100 | 10 to 100 | 100 to 1000 | 100 to 1000 | 10 to 100 | 10 to 100 | 100 to 1000 | 100 to 1000 | 100 to 1000 | 100 to 1000 | 10 to 100 | 100 to 1000 | 100 to 1000 | 
